Like-named read-outs stand apart in the source and are kept apart here.
Tests used:
[1] = molecular target: T1, AChE from electric eel (EeAChE) (Electrophorus electricus, UniProt O42275); test: AChE activity assay (modified Ellman's method); type: biochemical; conditions: for IC50: mean ± SEM, n = 3
T1 construct: AChE from electric eel (C3389-500UN; Sigma); purchased Sigma C3389-500UN
Protocol: (§1) Enzymatic activity assays were performed on AChE from electric eel (C3389-500UN; Sigma) and BuChE from equine serum (C4290-1KU; Sigma), according to Ellman’s method with light modification. The experiment was performed in 48-well plates in a final volume of 500 µl. Each well contained 0.036 U/ml of EeAChE or eqBuChE, and 0.1 M pH = 8 phosphate buffer. They were incubated for 20 min at different concentrations of test compound at 37 °C. […] The DTNB produced the yellow anion 5-thio-2-nitrobenzoic acid along with the enzymatic degradation of acetylthiocholine or butyrylthiocholine. The absorbance of each assay was measured at 410 nm after 20 min in a Biotek Synergy HTX Multi-Mode reader. The IC50 values were calculated graphically from inhibition curves (log inhibitor concentration vs percent of inhibition). A control experiment was performed under the same conditions without inhibitor and the blank contained buffer, DMSO, DTNB and substrate.

[2] = molecular target: T2, BuChE from equine serum (eqBuChE) (Equus caballus, UniProt P81908); test: BuChE activity assay (modified Ellman's method); type: biochemical, equine (horse); conditions: for IC50: mean ± SEM, n = 3; for inhibition at 20 µM / inhibition % at 20 µM BuChE: 20 µM compound
T2 construct: BuChE from equine serum (C4290-1KU; Sigma); purchased Sigma C4290-1KU; host or cells: equine serum
Protocol: as §1

eqBuChE = molecular target: T3, eqBuChE (Equus caballus, UniProt P81908); test: Kinetic study of eqBuChE inhibition (Lineweaver-Burk plots); type: biochemical, equine (horse); conditions: for type of BuChE inhibition: Lineweaver-Burk plots; for Ki: Lineweaver-Burk secondary plots, inhibitor 5, 10 and 20 µM, read-out: dissociation constant Ki against BuChE
T3 construct: BuChE from equine serum (C4290-1KU; Sigma); purchased Sigma C4290-1KU; host or cells: equine serum
Protocol: . The kinetic type of enzyme inhibition was obtained through the modified Ellman’s method and Lineweaver–Burk secondary plots. Apparent inhibition constants and kinetic parameters were calculated within the “Enzyme kinetics” module of Prism 5.
The kinetic studies were carried out at three fixed inhibitor concentrations (5, 10 and 20 µM).

[3] = Cytotoxicity MTT assay in PC12 cells; type: cell-based; conditions: rat, 1-50 µM, read-out: relative cell viability (cytotoxicity)
Protocol: PC12 cells were used to evaluate cell cytotoxicity by methyl thiazolyl tetrazolium (MTT) assay. PC12 cells were cultured in DMEM containing 10% fetal bovine serum, 100 µg/ml streptomycin and 100 units/ml penicillin at 37 °C in a 5% CO2 humidified atmosphere, and inoculated at 1 × 10^4 cells per well in 96-well plate. After cultured for 24 h, the cells were treated with different concentration of compounds in DMEM for 24 h. Then 20 µl of 0.5 mg/ml MTT reagent was added into the cells and incubated for 4 h. After 4 h, cell culture was removed and then 150 µl DMSO was added to dissolve the formazan. The optical density was measured at 570 nm (OD570). Cell viability was calculated from three independent experiments. OD570 of formazan in blank group was set as 100% of viability.
Blank: cultured with fresh medium only.

[4] = tested on: differentiated PC12 cells; test: Neuroprotective effect against H2O2-induced damage in differentiated PC12 cells; type: cell-based; conditions: Rattus norvegicus, PC-12, 25 µM compound 3 h before H2O2 (300 µM), 24 h, MTT, p < .05 vs. H2O2 alone, read-out: cell viability (neuroprotective activity)
Protocol: The differentiated PC12 cells and oxidative agent H2O2 were used as in vitro model to assess neuronal differentiation and neurobiochemical and neurobiological properties[39]^,[44]. Differentiated PC12 cells were incubated with different concentrations of compounds 6a and 6g for 3 h before treatment with H2O2 (300 µM). Cell viability was measured after 24 h using MTT method. Briefly, 20 µL of 0.5 mg/ml MTT reagent was added into the cells and incubated for 4 h. After 4 h, cell culture was removed and then 150 µl DMSO was added to dissolve the formazan. OD570 value was measured at 570 nm on the Biotek Synergy HTX Multi-Mode reader. Results were adjusted by OD570 value in the blank.
. The differentiated PC12 cells were pretreated with three concentrations (10, 25 and 50 µM) for 3 h, before treatment with H2O2 (300 µM), and cell viability was measured after 24 h using MTT method. […]. Neuroprotective activity of compounds 6a and 6g […] was evaluated by subjecting PC12 cells to H2O2-induced damage. […]

[5] = Log P assessment (shake flask method, octanol/PBS); type: physicochemical; conditions: octanol/PBS pH 7.4, shake flask, 37 °C
Protocol: Log P, defined as the logarithm of octanol–water partition coefficient, is an important parameter to evaluate lipophilicity of compounds[45]. It can be calculated by determining the concentration of compound in octanol phase and water phase until the partition equilibrium was completed. In this work, log P of title compounds was measured by the shake flask method with slight modification. PBS (pH = 7.4) was used as the water. Both the octanol and the aqueous phase were saturated with each other before use. The assay mixture containing test compounds was shaken at 37 °C. After 24 h, the mixture was centrifuged at 4,000 rpm for 30 min, followed by the measurement with UV spectrophotometer. Experiments were conducted in triplicate and log p values were calculated.

[6] = AChE from electric eel, 20 µM compound, read-out: inhibition at 20 µM AChE
[7] = BuChE from horse serum, read-out: inhibition % at 20 µM BuChE
[8] = AChE from electric eel, 20 µM compound
[9] = AChE from electric eel, 20 µM compound, read-out: inhibition % at 20 µM AChE
[10] = BuChE from horse serum, read-out: inhibition at 20 µM BuChE

T2 sequence (P81908 whole entry): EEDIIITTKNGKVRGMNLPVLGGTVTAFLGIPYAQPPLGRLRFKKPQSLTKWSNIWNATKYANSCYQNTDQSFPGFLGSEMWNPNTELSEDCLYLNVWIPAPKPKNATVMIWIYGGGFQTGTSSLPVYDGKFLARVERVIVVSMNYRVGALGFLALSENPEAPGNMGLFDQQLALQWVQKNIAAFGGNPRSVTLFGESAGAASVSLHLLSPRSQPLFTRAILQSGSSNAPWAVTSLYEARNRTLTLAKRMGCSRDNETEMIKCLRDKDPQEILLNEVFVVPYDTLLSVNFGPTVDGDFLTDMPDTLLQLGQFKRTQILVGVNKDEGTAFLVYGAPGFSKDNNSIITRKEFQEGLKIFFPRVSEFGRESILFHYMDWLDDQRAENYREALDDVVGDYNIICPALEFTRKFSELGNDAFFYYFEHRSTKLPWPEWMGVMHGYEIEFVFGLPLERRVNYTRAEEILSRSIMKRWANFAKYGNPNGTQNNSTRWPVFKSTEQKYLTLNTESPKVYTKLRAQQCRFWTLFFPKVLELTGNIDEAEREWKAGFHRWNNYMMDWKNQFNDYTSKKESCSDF
T3 sequence (P81908 whole entry): as above
T1 sequence (O42275 24-633): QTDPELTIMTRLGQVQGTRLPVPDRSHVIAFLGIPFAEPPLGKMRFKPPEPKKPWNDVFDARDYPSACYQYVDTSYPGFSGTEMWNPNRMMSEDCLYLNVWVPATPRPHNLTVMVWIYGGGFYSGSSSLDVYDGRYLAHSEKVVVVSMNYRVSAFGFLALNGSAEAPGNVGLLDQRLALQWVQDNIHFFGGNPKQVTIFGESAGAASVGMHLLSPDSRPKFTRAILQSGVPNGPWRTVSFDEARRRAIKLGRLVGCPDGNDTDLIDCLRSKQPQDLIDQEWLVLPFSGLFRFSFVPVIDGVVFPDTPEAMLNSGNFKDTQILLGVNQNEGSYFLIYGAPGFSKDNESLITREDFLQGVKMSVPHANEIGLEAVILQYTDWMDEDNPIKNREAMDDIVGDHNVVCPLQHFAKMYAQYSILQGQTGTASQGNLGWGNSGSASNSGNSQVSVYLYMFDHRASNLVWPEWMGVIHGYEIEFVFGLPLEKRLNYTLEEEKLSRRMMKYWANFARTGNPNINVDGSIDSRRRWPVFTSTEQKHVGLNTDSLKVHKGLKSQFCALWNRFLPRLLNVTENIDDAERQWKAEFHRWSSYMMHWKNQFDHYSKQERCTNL

## O=C1Oc2ccccc2C2CC(c3ccccc3)=NN12 (centres unmarked) [Compound 3a, 2-Phenyl-1,10b-dihydro-5H-pyrazolo[1,5-c][1,3]benzoxazin-5-one]
[1]; [6]
  inhibition at 20 µM: < 0%
[2]; BuChE from horse serum
  IC50: 9.47 ± 0.23 µM

## S=C1Oc2ccccc2C2CC(c3ccccc3)=NN12 (centres unmarked) [Compound 3b, 2-Phenyl-1,10b-dihydro-5H-pyrazolo[1,5-c][1,3]benzoxazin-5-thione]
[1]; [6]
  inhibition at 20 µM: < 0%
[2]; [7]
  inhibition at 20 µM: 9 ± 3%

## O=C1Oc2ccccc2C2CC(c3ccc(F)cc3)=NN12 (centres unmarked) [Compound 3c, 2-(4-Fluoro)phenyl-1,10b-dihydro-5H-pyrazolo[1,5-c][1,3]benzoxazin-5-one]
[1]; [8]
  inhibition % at 20 µM AChE: 15 ± 3%
[2]; BuChE from horse serum
  inhibition % at 20 µM BuChE: 15 ± 2%

## O=C1Oc2ccc(Cl)cc2C2CC(c3ccc(Cl)cc3)=NN12 (centres unmarked) [Compound 3d, 9-Chloro-2-(4-chloro)phenyl-1,10b-dihydro-5H-pyrazolo[1,5-c][1,3]benzoxazin-5-one]
[1]; [8]
  inhibition % at 20 µM AChE: 39 ± 1%
[2]; BuChE from horse serum
  inhibition % at 20 µM BuChE: 41 ± 6%

## Cc1ccc(C2=NN3C(=O)Oc4ccc(Cl)cc4C3C2)cc1 (centres unmarked) [Compound 3e, 9-Chloro-2-(4-methyl)phenyl-1,10b-dihydro-5H-pyrazolo[1,5-c][1,3]benzoxazin-5-one]
[1]; [8]
  inhibition % at 20 µM AChE: 32 ± 2%
[2]; BuChE from horse serum
  inhibition % at 20 µM BuChE: 32 ± 5%

## Cc1ccc(C2=NN3C(=O)Oc4ccccc4C3C2)cc1 (centres unmarked) [Compound 3f, 2–(4-Methyl)phenyl-1,10b-dihydro-5H-pyrazolo[1,5-c][1,3]benzoxazin-5-one]
[1]; [8]
  inhibition % at 20 µM AChE: 48 ± 3%
[2]; BuChE from horse serum
  inhibition % at 20 µM BuChE: 32 ± 2%

## CC1=NN2C(=O)Oc3c(Cl)cc(Cl)cc3C2C1 (centres unmarked) [Compound 6a, 7,9-Dichloro-2-methyl-1,10b-dihydro-5H-pyrazolo[1,5-c][1,3]benzoxazin-5-one]
[1]; [9]
  inhibition at 20 µM: 39 ± 3%
[2]; BuChE from horse serum
  IC50: 1.06 ± 0.11 µM
eqBuChE
  type of BuChE inhibition: mixed-type inhibition
  Ki: 7.46 µM
[3]
  viability at 24 h: > 90%
[4]
  viability at 25 µM: > 70%
[5]
  logP at 24 h: 1.5

## CC1=NN2C(=S)Oc3c(Cl)cc(Cl)cc3C2C1 (centres unmarked) [Compound 6b, 7,9-Dichloro-2-methyl-1,10b-dihydro-5H-pyrazolo[1,5-c][1,3]benzoxazin-5-thione]
[1]; [9]
  inhibition at 20 µM: 25 ± 1%
[2]; [10]
  inhibition at 20 µM: < 0%

## CC1=NN2C(=O)Oc3c(Br)cc(Br)cc3C2C1 (centres unmarked) [Compound 6c, 7,9-Dibromo-2-methyl-1,10b-dihydro-5H-pyrazolo[1,5-c][1,3]benzoxazin-5-one]
[1]; AChE from electric eel
  IC50: 10.7 ± 0.64 µM
[2]; BuChE from horse serum
  IC50: 1.63 ± 0.42 µM
[5]
  logP at 24 h: 1.48

## CC1=NN2C(=S)Oc3c(Br)cc(Br)cc3C2C1 (centres unmarked) [Compound 6d, 7,9-Dibromo-2-methyl-1,10b-dihydro-5H-pyrazolo[1,5-c][1,3]benzoxazin-5-thione]
[1]; [9]
  inhibition at 20 µM: 26 ± 3%
[2]; [10]
  inhibition at 20 µM: < 0%

## CC1=NN2C(=O)Oc3ccc(Cl)cc3C2C1 (centres unmarked) [Compound 6e, 9-Chloro-2-methyl-1,10b-dihydro-5H-pyrazolo[1,5-c][1,3]benzoxazin-5-one]
[1]; [9]
  inhibition at 20 µM: 16 ± 1%
[2]; BuChE from horse serum
  IC50: 6.29 ± 0.65 µM

## CC1=NN2C(=S)Oc3ccc(Cl)cc3C2C1 (centres unmarked) [Compound 6f, 9-Chloro-2-methyl-1,10b-dihydro-5H-pyrazolo[1,5-c][1,3]benzoxazin-5-thione]
[1]; [9]
  inhibition at 20 µM: 18 ± 2%
[2]; [10]
  inhibition at 20 µM: < 0%

## CC1=NN2C(=O)Oc3ccc(Br)cc3C2C1 (centres unmarked) [Compound 6g, 9-Bromo-2-methyl-1,10b-dihydro-5H-pyrazolo[1,5-c][1,3]benzoxazin-5-one]
[1]; [9]
  inhibition at 20 µM: 26 ± 1%
[2]; BuChE from horse serum
  IC50: 1.63 ± 0.34 µM
eqBuChE
  type of BuChE inhibition: mixed-type inhibition
  Ki: 3.09 µM
[3]
  viability at 24 h: > 90%
[4]
  viability at 25 µM: > 70%
[5]
  logP at 24 h: 1.63

## CC1=NN2C(=S)Oc3ccc(Br)cc3C2C1 (centres unmarked) [Compound 6h, 9-Bromo-2-methyl-1,10b-dihydro-5H-pyrazolo[1,5-c][1,3]benzoxazin-5-thione]
[1]; [9]
  inhibition at 20 µM: 27 ± 2%
[2]; [10]
  inhibition at 20 µM: < 0%

## CC1=NN2C(=O)Oc3c(Br)cc(Cl)cc3C2C1 (centres unmarked) [Compound 6i, 7-Bromo-9-chloro-2-methyl-1,10b-dihydro-5H-pyrazolo[1,5-c][1,3]benzoxazin-5-one]
[1]; AChE from electric eel
  IC50: 13 ± 0.32 µM
[2]; BuChE from horse serum
  IC50: 2.44 ± 0.44 µM

## CC1=NN2C(=S)Oc3c(Br)cc(Cl)cc3C2C1 (centres unmarked) [Compound 6j, 7-Bromo-9-chloro-2-methyl-1,10b-dihydro-5H-pyrazolo[1,5-c][1,3]benzoxazin-5-thione]
[1]; [9]
  inhibition at 20 µM: 14 ± 2%
[2]; [10]
  inhibition at 20 µM: < 0%

## COc1cccc2c1OC(=O)N1N=C(C)CC21 (centres unmarked) [Compound 6k, 2-Methyl-7-methoxy-1,10b-dihydro-5H-pyrazolo[1,5-c][1,3]benzoxazin-5-one]
[1]; [9]
  inhibition at 20 µM: 35 ± 3%
[2]; BuChE from horse serum
  inhibition % at 20 µM BuChE: 14 ± 3%
[2]; [7]
  inhibition at 20 µM: < 20%

## COc1cccc2c1OC(=S)N1N=C(C)CC21 (centres unmarked) [Compound 6l, 2-Methyl-7-methoxy-1,10b-dihydro-5H-pyrazolo[1,5-c][1,3]benzoxazin-5-thione]
[1]; [9]
  inhibition at 20 µM: 30 ± 2%
[2]; [7]
  inhibition at 20 µM: 2 ± 2%

## CC1=NN2C(=O)Oc3ccc(C)cc3C2C1 (centres unmarked) [Compound 6m, 2,9-Dimethyl-1,10b-dihydro-5H-pyrazolo[1,5-c][1,3]benzoxazin-5-one]
[1]; [6]
  inhibition at 20 µM: < 0%
[2]; BuChE from horse serum
  inhibition % at 20 µM BuChE: 14 ± 1%
[2]; [7]
  inhibition at 20 µM: < 20%

## CC1=NN2C(=S)Oc3ccc(C)cc3C2C1 (centres unmarked) [Compound 6n, 2,9-Dimethyl-1,10b-dihydro-5H-pyrazolo[1,5-c][1,3]benzoxazin-5-thione]
[1]; [9]
  inhibition at 20 µM: 15 ± 2%
[2]; [10]
  inhibition at 20 µM: < 0%

## CC1=NN2C(=O)Oc3ccccc3C2C1 (centres unmarked) [Compound 6o, 2-Methyl-1,10b-dihydro-5H-pyrazolo[1,5-c][1,3]benzoxazin-5-one]
[1]; read-out: inhibition at 20 µM AChE
  inhibition at 20 µM: < 0%
[2]; read-out: inhibition % at 20 µM BuChE, BuChE from horse serum
  inhibition at 20 µM: 50.1 ± 4.3%

## CC1=NN2C(=S)Oc3ccccc3C2C1 (centres unmarked) [Compound 6p, 2-Methyl-1,10b-dihydro-5H-pyrazolo[1,5-c][1,3]benzoxazin-5-thione]
[1]; [6]
  inhibition at 20 µM: < 0%
[2]; [10]
  inhibition at 20 µM: < 0%

## CC1=NN2C(=O)Oc3c(Br)cccc3C2C1 (centres unmarked) [Compound 6q, 7-Bromo-2-methyl-1,10b-dihydro-5H-pyrazolo[1,5-c][1,3]benzoxazin-5-one]
[1]; [6]
  inhibition at 20 µM: < 0%
[2]; BuChE from horse serum
  IC50: 3.22 ± 1.06 µM

From PMC6179045, “Design, synthesis and biological evaluation of tricyclic pyrazolo[1,5-c][1,3]benzoxazin-5(5H)-one scaffolds as selective BuChE inhibitors” (Journal of Enzyme Inhibition and Medicinal Chemistry, 2018)
